Test results reported in article PMC7915275, “Mycobacterial and Human Ferrous Nitrobindins: Spectroscopic and Reactivity Properties” (International Journal of Molecular Sciences, 2021).
Values after ≈ are worked out from the molar mass of the structure shown. Like-named read-outs stand apart in the source and are kept apart here.

Assays:
Mt-Nb(II) [1] = target: T1, Mt-Nb(II) (Mycobacterium tuberculosis, UniProt P9WFG7); experiment: CO rebinding to Mt-Nb(II) after nanosecond laser flash photolysis
Description: CO rebinding kinetics to Mt-Nb(II) and Hs-Nb(II) at pH 7.4 (5.0 × 10^−2 M phosphate buffer) was obtained using the second harmonic (532 nm) of a Q-switched Nd:YAG laser (Surelite I-10, Continuum, Santa Clara, CA, USA) and the cw output of a 150 W Xe arc lamp was used as probe beam to monitor absorbance changes at 436 nm.
The CO adducts were obtained by equilibrating solutions in either 0.2 CO atm or 1.0 CO atm. The oxidation state, the molar fraction of ferrous carbonylated Nbs, and the Nb concentration were determined spectrophotometrically. Kinetics were analyzed according to Scheme 3.
According to Scheme 3, there are two types of processes, namely the formation of the A state directly from state B, which is much faster and independent on the ligand concentration (geminate recombination), whose extent φgem depends on the relative rates kBA(L) and kBC(L) according to the following relationship (3) φgem= kBA(L)/(kBA(L)+kBC(L)) and the observed rate rgem corresponds to (4) rgem= kBA(L)+ kBC(L) the formation of state A from state C (through the transient formation of state B), which depends on the ligand concentration (bimolecular recombination) and it is characterized by the second-order rate rbim corresponding to (5) rbim= kCB(L) × φgem

Ec-Mb(II) [2] = experiment: CO binding kinetics to Ec-Mb(II) (literature); parameters: species or system Equus caballus
At-Nb(II) [3] = target: T2, At-Nb(II) (Arabidopsis thaliana, UniProt O64527); parameters: method as in PMID 19938152; details: pH 7.0, 20.0 °C, cited from earlier work
T2 construct: made in house

Pc-Mb(II) [4] = experiment: CO binding kinetics to Pc-Mb(II) (literature); parameters: species or system Physeter catodon
Rp-NP7(II) = target: Rp-NP7(II); parameters: method as in PMID 22594621; details: pH 7.5, 20.0 °C, cited from earlier work
Hs-Nb(II) [5] = target: T3, Hs-Nb(II) (Homo sapiens, UniProt Q8WY91); experiment: CO binding to and dissociation from Hs-Nb(II) by rapid-mixing stopped-flow (incl. CO displacement by NO); details: for kobs(CO): λ = 421 nm
T3 construct: Homo sapiens Nb (Hs-Nb) is the C-terminal domain of the THAP4 protein; made in house
T3 sequence (Q8WY91 415-577 limits assumed): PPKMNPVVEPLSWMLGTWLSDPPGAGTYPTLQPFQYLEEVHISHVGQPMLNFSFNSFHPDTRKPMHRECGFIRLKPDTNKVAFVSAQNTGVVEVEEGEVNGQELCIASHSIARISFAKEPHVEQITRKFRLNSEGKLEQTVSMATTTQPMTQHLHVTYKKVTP
Procedure: Progress kinetic curves at selected wavelengths were analyzed according to Equation (1): (1) ODobs=OD0±∑i=1i−nΔODie^(−kit) where ODobs is the observed optical density at a selected wavelength and at a given time interval, OD0 is the optical density at t = 0, n is the number of exponentials, ΔODi is the optical density change associated to the exponential i, ki is the pseudo-first-order rate constant of the exponential i (i.e., kobs(CO)) and t is the time. Since data collection occurs on a logarithmic scale, experimental points in the first second represent the absolute majority (about 70 out of 100 points) of total collected ones.
Values of the second-order rate constant for Mt-Nb(II)-CO and Hs-Nb(II)-CO formation (i.e., kon(CO)) and of the first-order rate constant for CO dissociation from Mt-Nb(II)-CO and Hs-Nb(II)-CO (i.e., koff(CO)) were obtained from the dependence of the pseudo-first-order rate constant for Mt-Nb(II) and Hs-Nb(II) carbonylation (i.e., kobs(CO)) on the ligand concentration (i.e., [CO]) according to Equation (2):kobs(CO) = kon(CO) × [CO] + koff(CO)(2)
The values of the first-order rate constant for CO dissociation from Mt-Nb(II)-CO and Hs-Nb(II)-CO (i.e., for CO replacement by NO; koff(CO)) were also determined by mixing the Mt-Nb(II)-CO and Hs-Nb(II)-CO (final concentration, 2.0 × 10^−6 M to 5.0 × 10^−6 M; [CO] = 1.0 × 10^−4 M) solutions with the NO saturated solution (final concentration, […]), under anaerobic conditions (i.e., in the presence of 2.0 × 10^−3 M sodium dithionite), at pH 7.0 (1.0 × 10^−1 M phosphate buffer), and 25.0 °C; no gaseous phase was present. Kinetics of CO dissociation from Mt-Nb(II)-CO and Hs-Nb(II)-CO was recorded at 421 nm.
The conversion of Mt-Nb(II)-CO and Hs-Nb(II)-CO to Mt-Nb(II)-NO and Hs-Nb(II)-NO, respectively, was analyzed in the framework of Scheme 2 [75]:
The values of koff(CO) were determined from data analysis, according to Equation (1). The over 100-fold excess of NO over CO guarantees that the reaction proceeds rightward because kon(NO) × [NO] >> kon(CO) × [CO] [75].
Rapid-mixing experiments were carried out employing an SX18.MV stopped-flow apparatus (Applied Photophysics, Salisbury, UK), equipped with a diode array for spectra acquisition over a 1 ms time range (the light path of the observation chamber was 10 mm) and an SFM-20/MOS-200 rapid-mixing stopped-flow apparatus (BioLogic Science Instruments, Claix, France) (the light path of the observation chamber was 10 mm).

Ec-Mb(II) [6] = details: cited from earlier work
Mt-Nb(II) [7] = target: T1, Mt-Nb(II); experiment: CO binding to and dissociation from Mt-Nb(II) by rapid-mixing stopped-flow (incl. CO displacement by NO); parameters: made in house
[8] = cited from earlier work
Hs-Nb(II) [9] = target: T3, Hs-Nb(II); experiment: CO rebinding to Hs-Nb(II) after nanosecond laser flash photolysis; format: binding
Procedure: Kinetics were analyzed according to Scheme 3.

Rp-NP4(II) = target: Rp-NP4(II); parameters: method as in PMID 22594621; details: pH 7.5, 20.0 °C, cited from earlier work
Pc-Mb(II) [10] = tested on: Pc-Mb(II); parameters: method as in PMID 2303446; details: pH 7.0, 20.0 °C, cited from earlier work
Mt-Nb(II) [11] = target: T1, Mt-Nb(II); experiment: O2 dissociation from Mt-Nb(II)-O2 by oxygen pulse experiments; format: binding; parameters: made in house; details: Mt-Nb(II)-O2, pH 7.0, 25.0 °C
Procedure: (§1) Kinetics of O2 dissociation from the transient Mt-Nb(II)-O2, At-Nb(II)-O2 and Hs-Nb(II)-O2 species were investigated spectrophotometrically at pH 7.0 (1.0 × 10^−1 M phosphate buffer) and 25.0 °C by oxygen pulse experiments. This type of reaction proceeds according to Scheme 6.
(§2) The deoxygenation of Mt-Nb(II)-O2 and Hs-Nb(II)-O2 process was followed at 431 nm. Kinetics of Mt-Nb(II)-O2 and Hs-Nb(II)-O2 deoxygenation were analyzed according to Equation (1).
(§3) Rapid-mixing experiments were carried out employing an SX18.MV stopped-flow apparatus (Applied Photophysics, Salisbury, UK) equipped with a diode array for spectra acquisition over a 1 ms time range; the light path of the observation chamber was 10 mm.

At-Nb(II) [12] = target: T2, At-Nb(II); experiment: O2 dissociation from At-Nb(II)-O2 by oxygen pulse experiments; format: binding; details: At-Nb(II)-O2, pH 7.0, 25.0 °C
Procedure: as §1, §2, §3

Pc-Mb(II) [13] = tested on: Pc-Mb(II); parameters: method as in PMID 5800433; details: pH 7.0, 20.0 °C, temperature-jump method; cited from earlier work
Hs-Nb(II) [14] = target: T3, Hs-Nb(II); experiment: O2 dissociation from Hs-Nb(II)-O2 by oxygen pulse experiments; format: binding; details: Hs-Nb(II)-O2, pH 7.0, 25.0 °C
Procedure: as §1, §2, §3

[15] = faster phase, Eyring plots 10.0-40.0 °C
[16] = slower phase, Eyring plots 10.0-40.0 °C

T1 sequence (P9WFG7 whole entry): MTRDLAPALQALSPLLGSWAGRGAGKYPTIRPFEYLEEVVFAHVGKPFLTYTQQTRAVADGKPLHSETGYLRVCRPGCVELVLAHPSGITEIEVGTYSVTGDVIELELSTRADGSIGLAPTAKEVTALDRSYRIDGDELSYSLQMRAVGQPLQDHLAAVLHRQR
T2 sequence (O64527 whole entry): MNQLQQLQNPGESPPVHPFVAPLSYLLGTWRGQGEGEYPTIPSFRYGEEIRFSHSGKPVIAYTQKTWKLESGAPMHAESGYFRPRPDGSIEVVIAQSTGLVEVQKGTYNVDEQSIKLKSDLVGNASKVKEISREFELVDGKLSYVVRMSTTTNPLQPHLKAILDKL

Compound: [C-]#[O+] [CO]
- ΔH1^‡ bimolecular CO binding (Mt-Nb(II) [1]; [15]): 7.65 ± 0.48 kcal/mol
- ΔG1^‡ bimolecular CO binding (Mt-Nb(II) [1]; faster phase, at 20.0 °C): 10 ± 0.72 kcal/mol
- φgem (CO geminate rebinding) (Mt-Nb(II) [1]; laser photolysis): ≤ 0.05
- ΔH2^‡ bimolecular CO binding (Mt-Nb(II) [1]; [16]): 8.6 ± 0.96 kcal/mol
- ΔG2^‡ bimolecular CO binding (Mt-Nb(II) [1]; slower phase, at 20.0 °C): 10.5 ± 0.96 kcal/mol
- activation free energy ΔG^‡ of CO binding (Ec-Mb(II) [2]): 9.37 kcal/mol
- Kd (At-Nb(II) [3]; read-out: K (=koff/kon) for CO): 220 nM
- koff(CO) (At-Nb(II) [3]): 0.05 s⁻¹
- kon(CO) (At-Nb(II) [3]): 230000 M⁻¹ s⁻¹
- activation free energy ΔG^‡ of CO binding (Pc-Mb(II) [4]): 9.49 kcal/mol
- Kd (Rp-NP7(II); read-out: K (=koff/kon) for CO, first value (30% phase)): 0.088 nM
- Kd (Rp-NP7(II); read-out: K (=koff/kon) for CO, second value (70% phase) (converted)): 0.015 nM
- koff(CO), 30% phase (Rp-NP7(II)): 0.0044 s⁻¹
- koff(CO), 70% phase (Rp-NP7(II)): 0.00076 s⁻¹
- kon(CO) (Rp-NP7(II)): 5e+07 M⁻¹ s⁻¹
- kobs(CO) (Hs-Nb(II) [5]; Hs-Nb(II), [CO] = 2.1 × 10^−4 M, pH 7.0, 25.0 °C): (2.4 ± 0.3) × 10^1 s^−1
- kobs(CO) (Hs-Nb(II) [5]; Hs-Nb(II), [CO] = 4.5 × 10^−5 M, pH 7.0, 25.0 °C): 8.3 ± 0.9 s⁻¹
- kobs(CO) (Hs-Nb(II) [5]; Hs-Nb(II), [CO] = 7.0 × 10^−5 M, pH 7.0, 25.0 °C): (1.1 ± 0.1) × 10^1 s^−1
- Kd (Hs-Nb(II) [5]; Hs-Nb(II), pH 7.0, 25.0 °C, read-out: K (=koff/kon) for CO): 38000 nM
- kon(CO) (Hs-Nb(II) [5]; Hs-Nb(II), rapid-mixing, pH 7.0, 25.0 °C): 100000 M⁻¹ s⁻¹
- koff(CO) (Hs-Nb(II) [5]; Hs-Nb(II)-CO, pH 7.0, 25.0 °C): 3.8 ± 0.5 s⁻¹
- activation free energy ΔG^‡ of CO binding (Hs-Nb(II) [5]; Hs-Nb, from CO binding rate constant): 10.4 kcal/mol
- koff(CO) (Ec-Mb(II) [6]; footnote not given): 0.035 s⁻¹
- kon(CO) (Ec-Mb(II) [6]; pH 7.0, 20.0 °C): 500000 M⁻¹ s⁻¹
- kon(CO) (Ec-Mb(II) [6]; pH 7.0, 25.0 °C): 610000 M⁻¹ s⁻¹
- Kd (Ec-Mb(II) [6]; read-out: K (=koff/kon) for CO): 57 nM
- Kd (Mt-Nb(II) [7]; Mt-Nb(II), pH 7.0, 25.0 °C, read-out: K (=koff/kon) for CO): 63000 nM
- kon(CO) (Mt-Nb(II) [7]; Mt-Nb(II), rapid-mixing, pH 7.0, 25.0 °C): 55000 M⁻¹ s⁻¹
- koff(CO) (Mt-Nb(II) [7]; Mt-Nb(II)-CO, pH 7.0, 25.0 °C): 3.5 ± 0.5 s⁻¹
- activation free energy ΔG^‡ of CO binding (Mt-Nb(II) [7]; Mt-Nb, from CO binding rate constant): 10.8 kcal/mol
- solubility in the aqueous buffered solution ([8]; p = 760.0 mm Hg, 20.0 °C, phosphate buffer pH 7.0): 1030 µM (≈ 28.9 µg/mL)
- rgem (CO geminate recombination rate) (Hs-Nb(II) [9]; 25 °C): 9e+07 s⁻¹
- kBA(CO) ≈ rgem × φgem (Hs-Nb(II) [9]; Equation (3)): ≈ 4.5 × 10^6 s^−1
- kBC(CO) ≈ rgem - kBA(CO) (Hs-Nb(II) [9]; escape to solvent): ≈ 8.5 × 10^7 s^−1
- ΔH1^‡ bimolecular CO binding (Hs-Nb(II) [9]; [15]): 9.08 ± 0.96 kcal/mol
- ΔG1^‡ bimolecular CO binding (Hs-Nb(II) [9]; faster phase, at 20.0 °C): 8.37 ± 2.87 kcal/mol
- geminate CO recombination, share of total amplitude of the rebinding process (Hs-Nb(II) [9]; laser photolysis): ~ 5%
- φgem (CO geminate rebinding) (Hs-Nb(II) [9]; laser photolysis): ≤ 0.05
- ΔH2^‡ bimolecular CO binding (Hs-Nb(II) [9]; [16]): 9.08 ± 0.96 kcal/mol
- ΔG2^‡ bimolecular CO binding (Hs-Nb(II) [9]; slower phase, at 20.0 °C): 10 ± 1.4 kcal/mol
- Kd (Rp-NP4(II); read-out: K (=koff/kon) for CO, first value (77% phase)): 0.22 nM
- Kd (Rp-NP4(II); read-out: K (=koff/kon) for CO, second value (23% phase)): 0.22 nM
- koff(CO), 23% phase (Rp-NP4(II)): 0.0041 s⁻¹
- koff(CO), 77% phase (Rp-NP4(II)): 0.0097 s⁻¹
- kon(CO), 23% phase (Rp-NP4(II)): 1.9e+07 M⁻¹ s⁻¹
- kon(CO), 77% phase (Rp-NP4(II)): 4.5e+07 M⁻¹ s⁻¹
- kon(CO) (Pc-Mb(II) [10]; rapid-mixing and laser photolysis): 510000 M⁻¹ s⁻¹
- Kd (Pc-Mb(II) [10]; read-out: K (=koff/kon) for CO): 37 nM
- koff(CO) (Pc-Mb(II) [10]): 0.019 s⁻¹

Compound: O=O [O2]
- koff(O2) (Mt-Nb(II) [11]): 11 s⁻¹
- koff(O2) (At-Nb(II) [12]): 6.8 s⁻¹
- koff(O2) (Pc-Mb(II) [13]): 10 s⁻¹
- solubility in the aqueous buffered solution ([8]; p = 760 mm Hg, T = 20.0 °C, phosphate buffer pH 7.0, reference not given): 1250 µM (≈ 40 µg/mL)
- koff(O2) (Hs-Nb(II) [14]): 19 s⁻¹
